{"source": "paper PMC4057681", "about": "“Antenna-Specific Glutathione S-Transferase in Male Silkmoth Bombyx mori” (International Journal of Molecular Sciences, 2014)", "tested_on": "T1, BmGSTD4", "T1 construct": "245 aa precursor; signal peptide (22 aa) and the first two mature residues (Gly, Pro) removed; p28 vector (from pET28a), nickel column, E. coli Rosetta (DE3); about 26 kDa on SDS-PAGE; mature calculated 25,518 Da; by translation of printed primers: precursor begins MLTASVLG, construct begins (M)KKLVAPIK, C-terminus FINKDDE", "assay": "spectrophotometric GSH conjugation at […] nm, steady-state kinetics", "type": "biochemical, Bombyx mori", "conditions": "1 mM GSH, 0.1 M phosphate buffer pH 6.5"}
{"smiles": "O=[N+]([O-])c1ccc(Cl)c([N+](=O)[O-])c1", "note": "[CDNB, 1-chloro-2,4-dinitrobenzene]", "values": [{"measurement": "Km", "value": 20, "unit": "µM"}]}
